Results as given in patent US10537552B2, “Substituted 5-hydroxyoxindoles and their use as analgesics and fever reducers” (CARAFE DRUG INNOVATION, LLC, priority 2015, dated 2020).

Columns and labels:
[1] = system: acetic acid-induced behavioral response; test: abdominal constriction response test (acetic acid), Example 9; type: in vivo; conditions: B6C3F1 mice, FIG. 1; for inhibition of acetic acid-induced behavioral response: p.o. 30 min before i.p. 0.9% acetic acid, DMSO/2% methylcellulose, acetaminophen 75 to 300 mg/kg
Method: The example was performed to compare the antinociception (animal equivalent of analgesia) produced by the oral administration of 5-hydroxyoxindole vs acetaminophen in a standard model in mice. Male B6C3F1 mice (Taconic), 8-10 weeks of age were utilized. The mice were received at the facility at least one week prior to testing and housed in standard polycarbonate cages with filter tops. The experiments were done in accordance with the guidelines of the National Institutes of Health (NIH) and with the guidelines of the Committee for Research and Ethical Issues of the IASP (International Association for the Study of Pain) and were approved by the Institutional Animal Care and Use Committee (IACUC) of Taconic Laboratories. Four or five animals were housed per cage and food and water were provided ad libitum. Prior to initiation of the study, the mice were examined to assure adequate health and suitability. They were maintained on a 12 h/12 h light/dark cycle and room temperature was maintained between 20 and 23° C. with a relative humidity maintained between 30 and 70%. All compounds were tested in naïve animals. All compounds were administered orally 10 mL/kg, with a 30 minute pretreatment time. Each compound was dissolved in DMSO as a stock solution and mixed with methylcellulose (2%) before testing. Each compound was initially tested in five mice at a dose of 300 mg/kg in the abdominal constriction response test (Collier, British Journal of Pharmacology and Chemotherapy 32(2): 295-310, 1968). Based upon the results of the initial test, the dose-response relationship for each active compound was determined by measuring the level of analgesia produced by at least 3 escalating doses of the test compound. […] Vehicle or test compound was administered p.o. (per os) 30 min prior to an intraperitoneal (i.p.) injection of 0.9% acetic acid (10 mL/kg) and the number of responses (stretching of the hind limbs accompanied by a contraction of the abdominal muscles) to the acetic acid injection were counted over the subsequent 30 min period. […]

[2] = system: acetic acid-induced writhing responses; test: acetic acid writhing test (abdominal irritant test), Example 10; type: in vivo, C57/B16 mice; conditions: C57/B16 mice
Method: This example compares the antinociception (animal equivalent of analgesia) produced by the oral administration of 5-hydroxy-7-methyloxindole vs. acetaminophen. Initial studies were performed using 10% DMSO/Cremophor™ as the vehicle. To enable a comparison with other datasets, 5-hydroxy-7-methyloxindole was subsequently tested using 6% Tween 20® reagent as the vehicle.
Male C57/B16 mice (Taconic), 8 weeks of age, were used in this study. The mice were received at Drexel University at least one week prior to testing and housed in standard polycarbonate cages with filter tops. Experiments were done in accordance with the guidelines of the National Institutes of Health and with the guidelines of the Committee for Research and Ethical Issues of IASP and were approved by the Animal Care and Use Committee of Drexel University College of Medicine. Four to five animals were housed per cage and food and water were provided ad libitum. Prior to initiation of the study, the animals were examined to assure adequate health and suitability. Mice were maintained on a 12/12 light/dark cycle and room temperature was maintained between 20 and 23° C. with a relative humidity maintained between 30% and 70%.
Compounds were administered orally 10 mL/kg, with a 30 minute pretreatment time. All compounds were tested in naïve animals. Each compound was dissolved in DMSO as a stock solution and mixed with Cremophor™ (1:1 v/v) before testing. The mixed solutions were diluted 1:4 with sterile water (the final concentration of DMSO/Cremophor™ reagent was 10%) immediately before administration to maximize the amount of compound in solution and improve the uniformity of any compound substance remaining in suspension. It is possible that some of the drug was in suspension at the time of administration. Each compound was initially tested in 5 mice at a dose of 300 mg/kg in the writhing test to assess their ability to alleviate abdominal pain. Based on the results of the initial test, the dose-response relationship for each active compound was determined by measuring the level of analgesia produced by at least 3 escalating doses of the test compound. The measurement of inhibition of writhing for acetaminophen and 5-hydroxy-7-methyloxindole were repeated using 6% Tween® 20 reagent as the vehicle. In this case, both compounds were clearly in suspension when administered to the animals.
A modified version of the standard abdominal irritant test was used to assess analgesia. Mice were habituated for 1 h in a transparent test box (5×5×10 inches) before any injections. Vehicle or test compound was administered p.o. (per os) 30 min prior to an intraperitoneal (i.p.) injection of 0.6% acetic acid (10 mL/kg) and the number of writhing responses (stretching of the hind limbs accompanied by a contraction of the abdominal muscles) to the acetic acid injection were counted over the subsequent 30 min period. The mice from each cage were randomly assigned to the dosing groups and the mice from each group were injected in a random order.
The one-way ANOVA was used to determine significant difference from the vehicle control treated animal. Dose response data for 5-hydroxy-7-methyloxindole was fit by non-linear regression analysis to a logit model to provide an estimate of ED50.

[3] = system: liver (acute liver toxicity); test: liver histology (pathohistological examination); type: in vivo, C57BL/6 mice; conditions: mouse, in vivo
Method: In all experiments, mice were fasted overnight and then allocated randomly to receive either acetaminophen or equimolar dose of 5-hydroxy-7-methyloxindole by the intragastric route. Food was returned 4 h after the treatment. The two experimental groups were:
(a) Lower-dose group: Mice were administered acetaminophen (300 mg/kg) or 5-hydroxy-7-methyloxindole (324 mg/kg). After 7 h, the mice were sacrificed and liver and blood samples were taken for the analysis.
Seven hours after receiving the second injection, mice were sacrificed and liver and blood samples were taken for analysis.
A portion of the liver lobes of each mouse was fixed in 4% buffered paraformaldehyde, dehydrated in increasing concentrations of ethanol, and embedded in paraffin. Then, sections of tissue were cut to […] thickness using a rotary microtome, stained with hematoxylin and eosin, and then analyzed under a microscope.

## O=C1Cc2cc(O)ccc2N1 [Example 5-HI, 5-hydroxyoxindole]
[1]
  inhibition of acetic acid-induced behavioral response: statistically significant, dose-related inhibition
[1]; p.o.
  dose needed for same analgesic efficacy as acetaminophen: higher doses of 5-HI were required

## CC(=O)Nc1ccc(O)cc1 [acetaminophen, N-(4-Hydroxyphenyl)acetamide, reference compound]
[1]
  inhibition of acetic acid-induced behavioral response: robust and dose-related inhibition
[2]; p.o. 30 min before i.p. 0.6% acetic acid, 10% DMSO/Cremophor vehicle, 30 to 300 mg/kg, FIG. 2, 3
  inhibition of acetic acid-induced response (writhing): robust and dose-related inhibition
[2]; p.o., 6% Tween 20 vehicle (suspension), 100 and 300 mg/kg, FIG. 5, 6
  inhibition of acetic acid-induced response (writhing): Only a 300 mg/kg dose produced significant inhibition
[3]
  liver injury on pathohistological examination: acute liver injury in all of the mice
